The results in this text go back to ChEMBL document CHEMBL1201862, “PubChem BioAssay data set” (2004).

SMILES strings stand for the structures. The source made the active and inactive calls.

The subject of one test is BJ. The test can be described thus: cells. The test is classed as functional, cell-based. To be noted: Homo sapiens.
Test [1] addresses RAC-alpha serine/threonine-protein kinase (Homo sapiens, UniProt P31749). The test is classed as functional.
In test [2] the target is MAP kinase-activated protein kinase 2 (Homo sapiens, UniProt P49137). The test is classed as functional.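 Further: measured as one member of a kinome-wide kinase panel.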
In test [3] the target is Mitogen-activated protein kinase kinase kinase kinase 4 (Homo sapiens, UniProt O95819). The test is classed as functional.
Sequence of Mitogen-activated protein kinase kinase kinase kinase 4 (O95819 whole entry): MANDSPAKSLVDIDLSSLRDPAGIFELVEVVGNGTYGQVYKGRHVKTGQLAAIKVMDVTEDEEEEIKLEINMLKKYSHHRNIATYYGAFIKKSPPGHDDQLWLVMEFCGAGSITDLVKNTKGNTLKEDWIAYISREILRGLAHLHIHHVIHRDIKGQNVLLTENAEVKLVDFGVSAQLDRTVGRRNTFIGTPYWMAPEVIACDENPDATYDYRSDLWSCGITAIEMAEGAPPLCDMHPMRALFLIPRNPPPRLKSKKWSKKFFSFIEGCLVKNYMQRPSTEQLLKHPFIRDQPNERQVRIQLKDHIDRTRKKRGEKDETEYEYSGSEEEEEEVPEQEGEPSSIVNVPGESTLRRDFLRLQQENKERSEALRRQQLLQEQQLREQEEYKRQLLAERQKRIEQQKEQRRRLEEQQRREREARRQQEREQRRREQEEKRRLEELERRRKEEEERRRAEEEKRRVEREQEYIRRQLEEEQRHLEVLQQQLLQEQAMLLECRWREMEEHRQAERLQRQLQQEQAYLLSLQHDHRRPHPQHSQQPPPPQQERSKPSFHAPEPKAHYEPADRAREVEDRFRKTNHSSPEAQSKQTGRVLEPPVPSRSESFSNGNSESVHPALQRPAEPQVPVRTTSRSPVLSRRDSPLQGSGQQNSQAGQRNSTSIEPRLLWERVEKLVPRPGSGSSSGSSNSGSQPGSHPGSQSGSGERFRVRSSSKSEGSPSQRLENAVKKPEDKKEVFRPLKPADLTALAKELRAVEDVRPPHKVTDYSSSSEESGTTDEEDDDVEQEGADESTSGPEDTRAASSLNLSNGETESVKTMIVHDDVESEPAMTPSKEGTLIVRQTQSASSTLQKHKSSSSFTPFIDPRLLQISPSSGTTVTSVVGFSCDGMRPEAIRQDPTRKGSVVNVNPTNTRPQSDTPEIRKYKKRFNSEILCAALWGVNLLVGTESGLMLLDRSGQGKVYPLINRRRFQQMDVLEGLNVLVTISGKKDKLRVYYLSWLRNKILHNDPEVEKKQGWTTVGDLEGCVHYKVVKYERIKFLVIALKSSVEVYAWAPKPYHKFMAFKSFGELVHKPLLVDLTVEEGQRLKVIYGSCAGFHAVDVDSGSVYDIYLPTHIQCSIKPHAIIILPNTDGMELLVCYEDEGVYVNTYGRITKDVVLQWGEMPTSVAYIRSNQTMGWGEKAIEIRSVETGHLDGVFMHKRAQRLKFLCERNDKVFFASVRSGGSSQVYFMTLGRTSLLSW

Sequence of RAC-alpha serine/threonine-protein kinase (P31749 whole entry): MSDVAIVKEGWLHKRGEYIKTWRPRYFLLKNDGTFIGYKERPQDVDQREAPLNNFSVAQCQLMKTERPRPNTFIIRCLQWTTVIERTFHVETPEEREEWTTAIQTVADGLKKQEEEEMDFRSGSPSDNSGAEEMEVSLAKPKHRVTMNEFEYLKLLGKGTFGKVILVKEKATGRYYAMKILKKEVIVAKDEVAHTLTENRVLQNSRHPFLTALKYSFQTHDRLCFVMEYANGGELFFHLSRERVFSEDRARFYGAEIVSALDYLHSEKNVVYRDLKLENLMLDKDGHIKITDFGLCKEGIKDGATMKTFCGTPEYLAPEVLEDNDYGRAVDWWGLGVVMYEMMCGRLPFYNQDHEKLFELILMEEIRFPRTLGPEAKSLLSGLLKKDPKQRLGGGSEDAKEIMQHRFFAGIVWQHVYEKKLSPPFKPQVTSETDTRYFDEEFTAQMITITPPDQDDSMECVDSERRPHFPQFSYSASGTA
Sequence of MAP kinase-activated protein kinase 2 (P49137 whole entry): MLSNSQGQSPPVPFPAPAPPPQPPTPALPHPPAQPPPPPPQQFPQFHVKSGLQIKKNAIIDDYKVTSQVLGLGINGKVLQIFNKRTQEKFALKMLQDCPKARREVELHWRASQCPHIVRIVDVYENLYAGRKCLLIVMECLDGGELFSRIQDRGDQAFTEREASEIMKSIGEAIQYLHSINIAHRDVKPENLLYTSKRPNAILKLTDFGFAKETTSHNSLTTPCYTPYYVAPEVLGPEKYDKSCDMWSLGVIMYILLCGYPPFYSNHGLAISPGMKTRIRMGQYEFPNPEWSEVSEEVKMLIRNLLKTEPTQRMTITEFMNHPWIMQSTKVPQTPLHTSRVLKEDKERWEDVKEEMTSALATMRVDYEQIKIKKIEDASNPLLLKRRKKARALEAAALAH

As a reminder, the EC50 is the concentration giving half of the maximal effect. Take `COc1ccc(-c2nnc(NC(=O)c3ccc(F)cc3)o2)cc1`: the EC50 in the test with BJ was 30.7 µM (active).
A word on the Ki: it is a measure of affinity in units of concentration, obtained from inhibition or displacement. `CCn1c(-c2nonc2N)nc2cnc(Oc3cccc(NC(=O)c4ccc(OCCN5CCOCC5)cc4)c3)cc21` [GSK-269962A]: the Ki was 0.501 µM (active) in test [1], > 7.94 µM (inactive) in test [2] and > 10 µM (inactive) in test [3].
